According to ChEMBL document CHEMBL4417631, “Oral peptide inhibitors of interleukin-23 receptor and their use to treat inflammatory bowel diseases” (2017):
Where a SMILES comes first, the peptide text is derived from it. [ ]: non-standard residue; d: D form. hLeu = CC(C)CC[C@H](N)C(=O)O

Biological target: T1, Interleukin-23 receptor (Homo sapiens, UniProt Q5VWK5)
T1 sequence (Q5VWK5 whole entry): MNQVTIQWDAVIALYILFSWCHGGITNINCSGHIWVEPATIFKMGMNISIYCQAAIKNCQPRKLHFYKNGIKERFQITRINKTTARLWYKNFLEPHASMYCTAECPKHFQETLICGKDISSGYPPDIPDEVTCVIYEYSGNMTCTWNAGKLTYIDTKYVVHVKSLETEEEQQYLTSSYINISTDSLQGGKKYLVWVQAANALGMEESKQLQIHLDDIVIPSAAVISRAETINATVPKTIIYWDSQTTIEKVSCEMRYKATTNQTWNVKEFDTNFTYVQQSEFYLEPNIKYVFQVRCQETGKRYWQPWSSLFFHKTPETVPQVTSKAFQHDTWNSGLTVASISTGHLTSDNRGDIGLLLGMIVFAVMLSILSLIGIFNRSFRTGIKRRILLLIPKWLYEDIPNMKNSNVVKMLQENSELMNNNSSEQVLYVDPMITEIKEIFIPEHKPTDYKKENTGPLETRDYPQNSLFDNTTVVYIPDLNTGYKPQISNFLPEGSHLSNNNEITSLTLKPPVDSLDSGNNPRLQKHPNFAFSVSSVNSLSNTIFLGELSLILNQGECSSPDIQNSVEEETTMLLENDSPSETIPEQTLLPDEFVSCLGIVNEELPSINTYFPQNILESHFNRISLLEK
Experiment: Inhibition of interleukin-23 binding to human interleukin-23 receptor incubated for 2 hrs by competitive binding ELISA

CC(=O)N[C@@H](CS)C(=O)N[C@@H](CCC(N)=O)C(=O)N[C@H](C(=O)N[C@H](C(=O)N[C@@H](CCC(N)=O)C(=O)N[C@@H](CS)C(=O)N[C@@H](Cc1ccc(O)cc1)C(=O)N[C@@H](Cc1c[nH]c2ccccc12)C(=O)N[C@@H](CCC(C)C)C(=O)N[C@@H](CCC(=O)O)C(=O)N[C@@H](CC(N)=O)C(=O)NCC(N)=O)[C@@H](C)O)[C@@H](C)O (Ac-CQTTQCYW[hLeu]ENG-NH2)
IC50: > 10000 nM

CC(C)[C@H](NC(=O)[C@H](Cc1c[nH]c2ccccc12)NC(=O)[C@H](CC(=O)O)NC(=O)[C@H](C)NC(=O)[C@@H](N)CS)C(=O)N[C@@H](CS)C(=O)N[C@@H](Cc1ccc(O)cc1)C(=O)N[C@@H](Cc1c[nH]c2ccccc12)C(=O)N[C@@H](Cc1cnc[nH]1)C(=O)N[C@H](C(=O)N[C@@H](Cc1ccccc1)C(=O)NCC(=O)N[C@@H](CCCCN)C(=O)O)[C@@H](C)O
IC50: > 1000 nM

CC(=O)N[C@@H](CS)C(=O)N[C@H](C(=O)N[C@@H](CC(=O)O)C(=O)N[C@@H](Cc1c[nH]c2ccccc12)C(=O)N[C@H](C(=O)N[C@@H](CS)C(=O)N[C@@H](Cc1ccc(O)cc1)C(=O)N[C@@H](Cc1c[nH]c2ccccc12)C(=O)N[C@@H](Cc1cnc[nH]1)C(=O)N[C@H](C(=O)N[C@@H](Cc1ccccc1)C(=O)NCC(N)=O)[C@@H](C)O)C(C)C)[C@@H](C)O
IC50: < 500 nM

CC(=O)N[C@@H](CS)C(=O)N[C@@H](CCCCNC(=O)COCC(=O)NCCCC[C@H](NC(=O)[C@H](CS)NC(C)=O)C(=O)N[C@@H](CC(=O)O)C(=O)N[C@@H](Cc1c[nH]c2ccccc12)C(=O)N[C@H](C(=O)N[C@@H](CS)C(=O)N[C@@H](Cc1ccc(O)cc1)C(=O)N[C@@H](Cc1c[nH]c2ccccc12)C(=O)N[C@@H](Cc1cnc[nH]1)C(=O)N[C@H](C(=O)N[C@@H](Cc1ccccc1)C(=O)NCC(=O)O)[C@@H](C)O)C(C)C)C(=O)N[C@@H](CC(=O)O)C(=O)N[C@@H](Cc1c[nH]c2ccccc12)C(=O)N[C@H](C(=O)N[C@@H](CS)C(=O)N[C@@H](Cc1ccc(O)cc1)C(=O)N[C@@H](Cc1c[nH]c2ccccc12)C(=O)N[C@@H](Cc1cnc[nH]1)C(=O)N[C@H](C(=O)N[C@@H](Cc1ccccc1)C(=O)NCC(=O)O)[C@@H](C)O)C(C)C
IC50: > 10000 nM

CC(=O)N[C@@H](CS)C(=O)N[C@@H](C)C(=O)N[C@@H](CC(=O)O)C(=O)N[C@@H](Cc1c[nH]c2ccccc12)C(=O)N[C@H](C(=O)N[C@@H](CS)C(=O)N[C@@H](Cc1ccc(O)cc1)C(=O)N[C@@H](Cc1c[nH]c2ccccc12)C(N)=O)C(C)C
IC50: > 30000 nM

CC(=O)N[C@@H](CS)C(=O)N[C@@H](C)C(=O)N[C@@H](CC(=O)O)C(=O)N[C@@H](Cc1c[nH]c2ccccc12)C(=O)N[C@H](C(=O)N[C@@H](CS)C(=O)N[C@@H](Cc1ccc(O)cc1)C(=O)N[C@@H](Cc1cccc2ccccc12)C(=O)N[C@@H](Cc1cnc[nH]1)C(=O)N[C@H](C)C(=O)N[C@@H](Cc1ccccc1)C(=O)NCC(N)=O)C(C)C
IC50: > 1000 nM

CC(=O)N[C@@H](CS)C(=O)N[C@@H](CCC(N)=O)C(=O)N[C@H](C(=O)N[C@@H](Cc1c[nH]c2ccccc12)C(=O)N[C@@H](CCC(N)=O)C(=O)N[C@@H](CS)C(=O)N[C@@H](Cc1ccc(O)cc1)C(=O)N[C@@H](Cc1ccc(Cl)c(Cl)c1)C(=O)N[C@@H](CCCNC(=N)N)C(=O)N[C@H](C(=O)N[C@@H](CC(N)=O)C(=O)NCC(=O)NCCOCC(=O)N[C@H](CCCCN)C(N)=O)C(C)C)[C@@H](C)O
IC50: > 30000 nM

CC(=O)N[C@@H](CS)C(=O)N[C@@H](C)C(=O)N[C@@H](CC(=O)O)C(=O)N[C@@H](Cc1c[nH]c2ccccc12)C(=O)N[C@H](C(=O)N[C@@H](CS)C(=O)N[C@@H](Cc1ccc(O)cc1)C(=O)N[C@@H](Cc1cccc2ccccc12)C(=O)N[C@H](C(=O)N[C@H](C(=O)N[C@@H](Cc1ccccc1)C(=O)NCC(N)=O)[C@@H](C)O)C(C)C)C(C)C
IC50: 500 to 1000 nM

CC(=O)N[C@@H](C)C(=O)N[C@H](C(=O)N[C@@H](CC(=O)O)C(=O)N[C@@H](Cc1c[nH]c2ccccc12)C(=O)N[C@H](C(=O)N[C@H](C(=O)N[C@@H](Cc1ccc(O)cc1)C(=O)N[C@@H](Cc1c[nH]c2ccccc12)C(=O)N[C@@H](CCCN)C(=O)N[C@@H](CN)C(=O)N[C@@H](Cc1ccccc1)C(=O)NCC(=O)NCCOCC(=O)N[C@H](CCCCN)C(N)=O)C(C)(C)S)C(C)C)C(C)(C)S
IC50: > 30000 nM

CC(C)[C@H](NC(=O)[C@H](Cc1cnc[nH]1)NC(=O)[C@H](Cc1c[nH]c2ccccc12)NC(=O)[C@H](Cc1ccc(O)cc1)NC(=O)[C@H](CS)NC(=O)[C@H](CCCNC(=N)N)NC(=O)[C@H](Cc1c[nH]c2ccccc12)NC(=O)[C@H](CC(=O)O)NC(=O)[C@H](CO)NC(=O)[C@@H](N)CS)C(=O)N[C@@H](Cc1ccccc1)C(=O)NCC(N)=O (H-CSDWRCYWHVFG-NH2)
IC50: > 1000 nM

CC(=O)N[C@@H](CS)C(=O)N[C@@H](CCC(N)=O)C(=O)N[C@H](C(=O)N[C@@H](Cc1c[nH]c2ccccc12)C(=O)N[C@@H](CCC(N)=O)C(=O)N[C@@H](CS)C(=O)N[C@@H](Cc1ccc(O)cc1)C(=O)N[C@@H](Cc1c[nH]c2ccccc12)C(=O)N(C)[C@@H](CCCNC(=N)N)C(=O)N[C@@H](CCC(=O)O)C(=O)N[C@@H](CC(N)=O)C(=O)NCC(=O)NCCOCC(=O)N[C@H](CCCCN)C(N)=O)[C@@H](C)O
IC50: > 1000 nM

CC(=O)N[C@H](C(=O)N[C@@H](CCC(N)=O)C(=O)N[C@H](C(=O)N[C@@H](Cc1c[nH]c2ccccc12)C(=O)N[C@@H](CCC(N)=O)C(=O)N[C@H](C(=O)N[C@@H](Cc1ccc(Cl)c(Cl)c1)C(=O)N[C@@H](Cc1ccc2ccccc2c1)C(=O)N[C@@](C)(CCCN)C(=O)N[C@@H](CCC(=O)O)C(=O)N[C@@H](CC(N)=O)C(=O)NCC(N)=O)C(C)(C)S)[C@@H](C)O)C(C)(C)S
IC50: 100 to 1000 nM

CC(=O)N[C@H](C(=O)N[C@@](C)(CCCN)C(=O)N[C@H](C(=O)N[C@@H](Cc1c[nH]c2ccccc12)C(=O)N[C@@H](CCC(N)=O)C(=O)N[C@H](C(=O)N[C@@H](Cc1ccc(OCCN)cc1)C(=O)N[C@@H](Cc1ccc2ccccc2c1)C(=O)N[C@@](C)(CCCCN)C(=O)N[C@@H](CCC(=O)O)C(=O)N[C@@H](CC(N)=O)C(=O)NCC(N)=O)C(C)(C)S)[C@@H](C)O)C(C)(C)S
IC50: 100 to 1000 nM

CC(=O)N[C@H](CCCCN)C(=O)N[C@@H](CS)C(=O)N[C@@H](C)C(=O)N[C@@H](CC(=O)O)C(=O)N[C@@H](Cc1c[nH]c2ccccc12)C(=O)N[C@H](C(=O)N[C@@H](CS)C(=O)N[C@@H](Cc1ccc(O)cc1)C(=O)N[C@@H](Cc1c[nH]c2ccccc12)C(=O)N[C@@H](Cc1cnc[nH]1)C(=O)N[C@H](C(=O)N[C@@H](Cc1ccccc1)C(=O)NCC(=O)O)[C@@H](C)O)C(C)C
IC50: > 1000 nM

CC(=O)N[C@@H](CS)C(=O)N[C@@H](C)C(=O)N[C@@H](CC(=O)O)C(=O)N[C@@H](Cc1c[nH]c2ccccc12)C(=O)N[C@H](C(=O)N[C@@H](CS)C(=O)N[C@@H](Cc1ccc(O)cc1)C(=O)N[C@@H](Cc1ccc(-c2ccccc2)cc1)C(=O)N[C@@H](CCCN)C(=O)N[C@@H](CN)C(=O)N[C@@H](Cc1ccccc1)C(=O)NCC(=O)NCCOCC(=O)N[C@H](CCCCN)C(N)=O)C(C)C
IC50: > 30000 nM

CC(C)[C@H](NC(=O)[C@H](Cc1c[nH]c2ccccc12)NC(=O)[C@H](CC(N)=O)NC(=O)[C@H](CO)NC(=O)[C@@H](N)CS)C(=O)N[C@@H](CS)C(=O)N[C@@H](Cc1ccc(O)cc1)C(=O)N[C@@H](Cc1c[nH]c2ccccc12)C(=O)N[C@@H](Cc1cnc[nH]1)C(=O)N[C@H](C(=O)N[C@@H](Cc1ccc(O)cc1)C(=O)NCC(N)=O)[C@@H](C)O (H-CSNWVCYWHTYG-NH2)
IC50: < 500 nM
